Assays:
[1] = test system: NMDA receptor-ion channel complex; test: Whole-cell patch clamp: block of NMDA-induced currents on cultured rat hippocampal neurons (Example 6); type: cell-based; settings: rat hippocampal neurons, compared with MK-801
Protocol: In the electrophysiological studies the compounds are evaluated with respect to their ability to block the ion channel of the NMDA receptor channel complex and thereby inhibit Ca^2+ and Na^+ ion flow into the nerve cell. Initially, the ion channels are opened by activating the NMDA receptor. Ion flow is determined by measuring the passage of electrical current, i.e., a use-dependent decrease in electrical current indicates blocking of the ion channel due to binding of a ligand at a site within the channel.
Hippocampal neurons were obtained from the CA1 region of the hippocampus from 1-3 day-old-newborn rats (Long-Evans). Small blocks of tissue ([…]1mm^3) were incubated in papain (20 units ml^-1; Worthington-Cooper) for 30 minutes. The tissue was dissociated into a single cell suspension by trituration with a fire-polished Pasteur pipette in complete growth medium (Earle's MEM, 20 mM glucose, 50 units/ml penicillin/streptomycin, 5% heat-inactivated fetal calf serum, Serum Extender from Collaborative Research) containing 2.5 mg/ml bovine serum albumin and 2.5 mg/ml trypsin inhibitor (Sigma). The cells were plated onto glass coverslips coated with collagen/poly-D-lysine. Cultures were fed every 3 days by replacing haft the volume of medium. Arabinosylcytosine (5×10^-6 M) was added to the cultures for 1 or 2 days during the first week after plating to suppress the proliferation of non-neuronal cells.
All electrophysiology experiments were performed with the whole-cell mode of patch clamp recording [Hamill, O. D., Marty, A., Neher, E., Sakman, B., and Sigworth, F. J., Pflugers Arch. 391:85-100 (1981)] from neurons grown for 1-3 weeks in culture. Agonists and agonist/antagonist combinations were applied by a U-tube mol (Fenwick et al, J. Physiol. 331:577-597 (1982)) to neurons in whole-cell experiments. The external solution contained (in mM) NaCl 140, KCl 3.5, CaCl2 1, glucose 5, picrotoxinin 0.02, tetrodotoxin (TTX) 5×10^-4, and N-2-hydroxyethyl-piperazine-N'-2-ethanesulfonic acid (HEPES) 10. The pH of this solution was adjusted to 7.4 with NaOH. The internal (patch electrode) solution contained (mM) Cs-methanesulfonate 120, CsCl 10, ethyleneglycol-bis-(β-aminoethylether)-N,N,N',N'-tetraacetic acid (EGTA) 10, HEPES 10 (pH adjusted to 7.0 with CsOH). Membrane current was filtered at 4000 Hz (-3dB; 8-pole Bessel) and recorded on magnetic tape for later analysis. Experiments were performed at room temperature (20°-25° C.). [Sources of chemicals: N-methyl-D-aspartate, Cambridge Research Biochemicals; pirotoxinin, Sigma Chemical Company; salts for recording solutions, Aldrich (Gold Label) or Alfa (Puratronic). [^3 H]Kainate and [3H]CPP and [^3 H]AMPA were purchased from Dupont/NEN (Boston, Mass.)].
Repetitive applications (every 30 s) to the same cell produced currents which varied less than 5% over a period of at least 30 minutes.

[2] = target: PCP receptor; test: PCP receptor affinity of IDDC analogs vs. [3H]MK-801 in rat brain membrane (Example 10, Table 2); settings: read-out: PCP Receptor Affinity IC50 in Rat Brain Membrane vs. [3H]MK-801, MEAN
[3] = test system: rat hippocampal cells; test: In vitro neurotoxicity assay: protection against glutamate, Trypan Blue survival count (Example 7); type: cell-based; settings: glutamate 0-1000 uM, 1 uM glycine
Protocol: In the cytotoxicity studies, cultured mammalian neurons expressing EAA receptors are exposed in vitro to glutamate and the particular compound under investigation. The survival percentage of cells indicates the ability of the compound to protect against glutamate-induced neuronal death.
Dissociated rat hippocampal cultures were prepared using a modification of the method of Huettner and Baughman [Huettner, J. E. and Baugham, R. W., J. Neurosci. 6:3044-3060 (1986)]. The cortices were removed from 1-3 day post-natal rats (Sprague-Dawley) that had been anesthetized with chloral hydrate, and the hippocampi were dissected out and placed in Cl^- free dissociation medium supplemented with 1 mM kynurenic acid and 10 mM MgSO4 (Choi, D. W., J. Neurosci. 7:369-379 (1987)). The hippocampi were washed in the dissociation medium, then incubated for 2×20 minutes at 37° C. in dissociation medium containing 10 units/ml of Papain (Worthington). After the enzyme treatment, the tissue was incubated for three 5-minute periods at 37° C. with 10 mg/ml trypsin inhibitor (Sigma type II-0).
The cells were dissociated by trituration in growth medium and plated as 0.15 ml droplets of cell suspension onto the center of 35 mm Primaria (Falcon) dishes that had been stamped with a labeled 26×26 grid of approximately 0.64 cm^2 total area using a Mecanex BB form (WPI, New Haven, Conn.) and coated with poly-D-lysine and laminin (Collaborative Research). The cell density was between 2.5 and 4.0×10^5 cells per dish. The growth medium was Eagles minimum essential media (MEM, Earle's salts) supplemented with 5% fetal bovine serum (CCL), 5% defined supplemented calf serum (HyClone), 50 mM glucose, 50 units/ml penicillin/streptomycin and MITO+serum extender (Collaborative Research). The cells were maintained at 37° C. in a humidified 4.5% CO2 atmosphere. […]
Before treatment, sister cultures were examined under phase-contrast microscopy to ensure that the cultures were of a similar density. […] The cultures were washed three times and the surviving cells counted in the grid area using phase contrast microscopy. […]

[4] = test system: lesions caused by NMDA injection; test: In vivo neurotoxicity assay: protection against lesions caused by cerebral NMDA injection (Example 8); settings: about 0.30 to 60 μMol/kg, intraperitoneal, 15 minutes following cerebral NMDA injection
Source text: In the in vivo neurotoxicity studies, the experimental model of McDonald, D. W., et al., (In: Sigma and Phencyclidine-like Compounds as Molecular Probes in Biology, Ed. Domino, E. F., and Kamenka, J.-M., pp. 697-707 (1988), NPP Books, Ann Arbor, Mich.) may be employed. In this model, NMDA injection into one cerebral hemisphere causes injury which resembles the lesion produced by hypoxia-ischemia. The ability of compounds to limit the NMDA-induced lesion is a measure of their neuroprotective properties; since the compounds may be administered intraperitoneally, the model can also provide information about a compound's ability to cross the blood-brain barrier.
The experimental model of McDonald, J. W., et al., supra, was employed with the single alteration in protocol of an intraperitoneal injection of the test compound 15 minutes following, rather than preceding, the cerebral NMDA injection.

[5] = target: PCP receptor; test: PCP receptor binding against 3H-MK-801 (Example 5, Table 1); settings: vs. 3H-MK-801; ± sem (n)
Protocol: The PCP receptor binding properties of various compounds of the invention against ^3 H-5-methyl-10,11-dihydro-5H-dibenzo[a,d]cycloheptene-5,10-imine (^3 H-MK-801) were determined.

Compound | use-dependent blockage of NMDA-induced (+glycine) responses [1] | IC50 [2] | cell survival compared to control ([3]; 5 uM) | protection against lesions caused by NMDA injection [4] | IC50 [5] | cell survival compared to control ([3]; 10 uM)
c1ccc2c(c1)C[C@H]1NC[C@@H]2c2ccccc21 [(+)-IDDC, (+)-10(R),5(S)-(iminomethano)-10,11-dihydro-5H-dibenzo[a,d]cycloheptene] | very similar to the use dependent blocking action exhibited by MK-801 | 0.04 µM | enhanced cell survival when compared to control values | protect against the lesions caused by NMDA injection | 0.04 ± 0.005 µM | –
c1ccc2c(c1)CC1NCC2c2ccccc21 (racemic) [(±)-IDDC, (±) 10,5-(iminomethano)-10,11-dihydro-5H-dibenzo[a,d]cycloheptene] | – | 0.0746 µM | enhanced cell survival when compared to control values | – | 0.041 ± 0.006 µM | –
CN1CC2c3ccccc3CC1c1ccccc12 (single isomer, unassigned) [N-methyl IDDC, N-methyl-10,5-(iminomethano)-10,11-dihydro-5H-dibenzo[a,d]cycloheptene] | – | – | – | – | – | enhanced cell survival when compared to control values

— patent publication US5688789A, “PCP receptor ligands and the use thereof” (State of Oregon, acting by and through the Oregon State …, priority 1995, dated 1997)
